Source: US7638509B2, “Diene compounds and formulations” (priority 2003, dated 2009)

Legend:
[1] = system: PSA; assay: PSA expression in LNCaP cells, Western blot; assay type: cell-based, human; conditions: 48 h, 1 μM compound + 1 nM DHT
Protocol: Western Blot. […] An antibody for -actin (Santa Cruz Biotechnology) was used as the internal control. Blots were quantitated by Collage software (Fotodyne).
The 33-kDa protein was quantitated. β-Actin expression was used as an internal control. […] The mean±SD of three separate experiments was determined. […] Total cell number was counted by hemocytometer. The mean of at least three determinations was determined.

[2] = biological target: T1, wild-type AR (Homo sapiens, UniProt P10275); assay: AR transcriptional activity (androgenic activity), MMTV-Luc reporter in PC-3 cells transfected with wild-type AR; assay type: cell-based; set-up: expressed in transfected cells; host or cells: PC-3; conditions: PC-3, wild-type AR plasmid + MMTV-Luc, compound at 1000 nM, 24 h
T1 sequence (P10275 1-920): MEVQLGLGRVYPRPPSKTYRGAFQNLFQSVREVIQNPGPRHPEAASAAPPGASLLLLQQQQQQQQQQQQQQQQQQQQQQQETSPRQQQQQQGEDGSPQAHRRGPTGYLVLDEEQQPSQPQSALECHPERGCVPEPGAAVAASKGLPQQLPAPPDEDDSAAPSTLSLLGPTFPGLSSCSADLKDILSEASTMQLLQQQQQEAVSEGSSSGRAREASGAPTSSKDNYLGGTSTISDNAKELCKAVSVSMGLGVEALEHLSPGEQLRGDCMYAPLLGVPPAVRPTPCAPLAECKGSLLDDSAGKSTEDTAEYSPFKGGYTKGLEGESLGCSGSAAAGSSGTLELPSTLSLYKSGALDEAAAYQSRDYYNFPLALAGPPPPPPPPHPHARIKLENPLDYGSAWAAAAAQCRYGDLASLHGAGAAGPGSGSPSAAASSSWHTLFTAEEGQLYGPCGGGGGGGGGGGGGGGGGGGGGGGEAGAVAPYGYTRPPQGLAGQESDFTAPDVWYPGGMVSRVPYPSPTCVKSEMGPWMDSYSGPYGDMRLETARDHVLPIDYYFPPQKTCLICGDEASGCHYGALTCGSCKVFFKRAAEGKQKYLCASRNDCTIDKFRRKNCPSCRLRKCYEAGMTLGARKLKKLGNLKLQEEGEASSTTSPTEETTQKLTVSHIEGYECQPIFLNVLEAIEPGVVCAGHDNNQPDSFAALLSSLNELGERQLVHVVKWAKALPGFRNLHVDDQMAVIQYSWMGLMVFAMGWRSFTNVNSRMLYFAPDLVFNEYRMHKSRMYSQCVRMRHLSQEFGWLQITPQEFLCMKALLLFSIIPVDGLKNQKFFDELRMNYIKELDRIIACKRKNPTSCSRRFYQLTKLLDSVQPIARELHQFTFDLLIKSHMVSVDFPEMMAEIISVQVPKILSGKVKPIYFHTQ
Protocol: (§1) Cell Culture, Transfection, and Reporter Gene Assay. The human prostate cancer cell lines, LNCaP, PC-3, and DU145, and non-prostate cancer cell line COS-1 were maintained in RPMI or Dulbecco's modified Eagle's medium (DMEM) (Life Technologies) supplemented with 10% fetal bovine serum (FBS). Transfections and luciferase (Luc) assays were performed as previously described (Miyamoto, H., Yeh, S., Wilding, G. & Chang, C. (1998) Proc. Natl. Acad. Sci. USA 95, 7379-7384; Miyamoto, H., Rahman, M., Takatera, H., Kang, H.-Y., Yeh, S., Chang, H.-C., Nishimura, K., Fujimoto, N. & Chang, C. (2002) J. Biol. Chem. 277, 4609-4617). Briefly, cells seeded to reach a density of 50-60% confluence in 12 well tissue culture plates were transfected with 1.5 μg of DNA according to “SuperFect transfection” instructions (Qiagen). After 2-3 h incubation, cells were treated with medium supplemented with charcoal-stripped FBS containing either ethanol or ligands for 24 h. The cells were then harvested and whole cell extracts were used for Luc assay. The Luc activity was determined using a Dual-Luciferase Reporter Assay System (Promega) and luminometer.
Anti-DHT Effect of DHEA Derivatives with Low Androgenic Activity on AR Transcription. Test compounds as antiandrogenic compounds, were characterized by analysis of their ability to induce AR transcriptional activity in the AR-negative PC-3 cell line. The Luc activity was determined in the cell extracts with transient transfection of wild-type AR plasmid and androgen response element-reporter plasmid (mouse mammary tumor virus (MMTV)-Luc). After transfection, the cells were treated with various compounds at 0.1-1,000 nM.
(§2) To accomplish these studies, PC-3 cells were transfected with the wild-type AR expression plasmid pSG5-AR and MMTV-Luc. […] The Luc activity was measured relative to that of ethanol treatment (set as 1-fold). Values from the mean±SD of at least three determinations were used. PC-3 cells were transfected with the pSG5-AR and MMTV-Luc. […] Values from the mean±SD of at least three determinations were obtained.

[3] = biological target: T1, wild-type AR; assay: Competitive [3H]-R1881 ligand binding assay, extracts of COS-1 transfected with wild-type AR; set-up: expressed in transfected cells; host or cells: COS-1; conditions: 1 nM [3H]-R1881, unlabeled ligand 1-10,000 nM, relative to DHT
Protocol: Ligand Binding Assay. Whole cell extracts from COS-1 with transient transfection of pSG5-AR, or LNCaP without transfection, were incubated for 2 h at 37° C. with 1 nM [^3H]-synthetic androgen methyltrienolone (R1881) in the presence and absence of increasing concentrations (1-10,000 nM) of unlabeled ligands. Then, hydroxyapatite (Bio-Rad) was added and stirred for 15 min at 4° C. After centrifugation and washing, radioactivity was determined by scintillation counting.
Clinically available antiandrogens have an affinity for the AR, allowing a competition with androgens for binding. To determine whether ADEK has this common feature of AR antagonists, the competitive androgen binding assay was performed.

[4] = biological target: T1, wild-type AR; assay: Anti-DHT activity on AR transcription, MMTV-Luc reporter in PC-3 cells transfected with AR; assay type: cell-based; set-up: expressed in transfected cells; host or cells: PC-3; conditions: PC-3, 1 nM DHT, compound at 0.01, 0.1 or 1 μM, dose-dependent
Protocol: as §1, §2

Which “DHT-induced PSA expression decreased to (DHT = 100%)” value [1] does the source give for `CC(=O)O[C@H]1C=C[C@@]2(C)C(=CC[C@@H]3[C@@H]2CC[C@@]2(C)[C@H]3CCC23OCCO3)C1` [ADEK, 3β-acetoxy-17,17-ethylenedioxyandrosta-1,5-diene] here?
The value was 49%.

What about the “induction on AR transcription as compared to mock treatment” value [2] of the same compound?
Its value is “marginal induction”.

And the “RBA in COS-1 with AR” value [3]?
Its value is 6.0.

And the “DHT-induced AR transactivation suppressed to (Luc activity relative to DHT = 100%)” value [4]?
Its value is 30%.
